From paper PMC12466513, “Okanin Attenuates Mitochondrial Dysfunction and Apoptosis in UVA-Induced HaCaT Cells by Mitophagy Through SIRT3 Pathway” (Antioxidants, 2025)

Legend:
SIRT3 [1] = biological target: T1, SIRT3 (Homo sapiens, UniProt Q9NTG7); experiment: DARTS (pronase digestion, blot); format: biochemical; parameters: detected by blot; settings: protein lysate
T1 sequence (Q9NTG7 102-399): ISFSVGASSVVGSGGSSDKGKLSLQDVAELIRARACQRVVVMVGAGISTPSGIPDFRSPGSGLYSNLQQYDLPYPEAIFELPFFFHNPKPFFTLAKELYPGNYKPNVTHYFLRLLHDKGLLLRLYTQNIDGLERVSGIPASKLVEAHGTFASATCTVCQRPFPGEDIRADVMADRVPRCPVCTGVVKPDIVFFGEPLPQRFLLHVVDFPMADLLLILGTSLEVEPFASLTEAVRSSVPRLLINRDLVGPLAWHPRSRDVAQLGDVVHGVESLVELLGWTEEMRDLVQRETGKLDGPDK

SIRT3 [2] = biological target: T1, SIRT3; experiment: surface plasmon resonance; format: binding; parameters: SIRT3 protein used for SPR; PDB 4JT8 was only the docking model

Which results are given for `O=C(/C=C/c1ccc(O)c(O)c1)c1ccc(O)c(O)c1O` [okanin]?
DARTS protection (SIRT3 [1]): okanin treatment significantly enhanced SIRT3 resistance to pronase digestion in protein lysates; Kd (SIRT3 [2]): 4.98 µM
